According to EP0683169A1, “8-Amino-pyrido 1,2,3-de 1,3,4 benzoxadiazine derivatives, and antibacterial agents containing them” (BAYER AG, priority 1994, dated 1995):
In brackets after ≈: the same amount, converted by molar mass.

Key:
Assay in all cases: MIC (MHK) by agar serial dilution on Iso-Sensitest agar
Type in all cases: cell-based
[1] = test system: Acinetobacter 14068; settings: strain 14068, ca. 10⁴ colony-forming particles per spot, 37°C, ca. 20 h, read-out: MHK-Werte
Excerpt: (§1) Die minimalen Hemmkonzentrationen (MHK) der erfindungsgemäßen Verbindungen wurden per Reihenverdünnungsverfahren auf Iso-Sensitest Agar (Oxoid) bestimmt. Für jede Prüfsubstanz wurde eine Reihe von Agarplatten hergestellt, die bei jeweils doppelter Verdünnung abfallende Konzentrationen des Wirkstoffs enthielten. Die Agarplatten wurden mit einem Multipoint-Inokulator (Denley) beimpft. Zum Beimpfen wurden Übernachtkulturen der Erreger verwandt, die zuvor so verdünnt wurden, daß jeder Impfpunkt ca. 10⁴ koloniebildende Partikel enthielt. Die beimpften Agarplatten wurden bei 37°C bebrütet, und das Keimwachstum wurde nach ca. 20 Stunden abgelesen. Der MHK-Wert (µg/ml) gibt die niedrigste Wirkstoffkonzentration an, bei der mit bloßem Auge kein Wachstum zu erkennen war.
(§2) In der nachstehenden Tabelle sind die MHK-Werte einiger der erfindungsgemäßen Verbindungen aufgeführt. Tabelle

[2] = test system: E. coli ATCC 25922; settings: Escherichia coli, ATCC25922, strain ATCC 25922, ca. 10⁴ colony-forming particles per spot, 37°C, ca. 20 h, read-out: MHK-Werte
Excerpt: as §1, §2

[3] = test system: E. coli Neumann; settings: Escherichia coli, strain Neumann, ca. 10⁴ colony-forming particles per spot, 37°C, ca. 20 h, read-out: MHK-Werte
Excerpt: as §1, §2

[4] = test system: Klebsiella pneumoniae 8085; settings: strain 8085, ca. 10⁴ colony-forming particles per spot, 37°C, ca. 20 h, read-out: MHK-Werte
Excerpt: as §1, §2

[5] = test system: Micrococcus luteus 9341; settings: strain 9341, ca. 10⁴ colony-forming particles per spot, 37°C, ca. 20 h, read-out: MHK-Werte
Excerpt: as §1, §2

Row | Structure (SMILES) | MIC [1] | MIC [2] | MIC [3] | MIC [4] | MIC [5]
1 | CN1COc2c(N3CCC(O)C3)c(F)c(N)c3c(=O)c(C(=O)O)cn1c23 (centres unmarked) [Beispiel 5, 8-Amino-9-fluor-3-methyl-10-(3-hydroxy-1-pyrrolidinyl)-7-oxo-2,3-dihydro-7H-pyrido[1,2,3-d,e][1,3,4]benzoxadiazin-6-carbonsäure] | 0.015 µg/mL (≈ 0.0412 µM) | 0.03 µg/mL (≈ 0.0823 µM) | 0.015 µg/mL (≈ 0.0412 µM) | 0.25 µg/mL (≈ 0.686 µM) | 0.015 µg/mL (≈ 0.0412 µM)
2 | CN1CCN(c2c(F)c(N)c3c(=O)c(C(=O)O)cn4c3c2OCN4C)CC1 [Beispiel 2, 8-Amino-9-fluor-3-methyl-10-(4-methyl-1-piperazinyl)-7-oxo-2,3-dihydro-7H-pyrido[1,2,3-d,e][1,3,4]benzoxadiazin-6-carbonsäure] | 0.015 µg/mL (≈ 0.0397 µM) | 0.015 µg/mL (≈ 0.0397 µM) | 0.015 µg/mL (≈ 0.0397 µM) | 0.06 µg/mL (≈ 0.159 µM) | 0.015 µg/mL (≈ 0.0397 µM)
3 | CN1C[C@@H]2C[C@H]1CN2c1c(F)c(N)c2c(=O)c(C(=O)O)cn3c2c1OCN3C [Beispiel 10] | 0.015 µg/mL (≈ 0.0385 µM) | 0.06 µg/mL (≈ 0.154 µM) | 0.06 µg/mL (≈ 0.154 µM) | 0.12 µg/mL (≈ 0.308 µM) | 0.015 µg/mL (≈ 0.0385 µM)
4 | CC1CN(c2c(F)c(N)c3c(=O)c(C(=O)O)cn4c3c2OCN4C)CCN1 (centres unmarked) [Beispiel 3, 8-Amino-9-fluor-3-methyl-10-(3-methyl-1-piperazinyl)-7-oxo-2,3-dihydro-7H-pyrido[1,2,3-d,e][1,3,4]benzoxadiazin-6-carbonsäure] | 0.015 µg/mL (≈ 0.0397 µM) | 0.06 µg/mL (≈ 0.159 µM) | 0.06 µg/mL (≈ 0.159 µM) | 0.12 µg/mL (≈ 0.318 µM) | 0.015 µg/mL (≈ 0.0397 µM)
